Assay results published in patent publication US8153773B2, “Synthesis and use of anti-reverse phosphorothioate analogs of the messenger RNA cap” (Board of Supervisors of Louisiana State University and …, priority 2007, dated 2012).

Test system: HC11 cells
Test: Time course of luciferase expression after nucleoporation of HC11 cells
Format: cell-based, mouse
Settings: luciferase activity up to 10 h after nucleoporation, normalized for Luc-A60 delivered
Description: Two methods, electroporation and nucleoporation, were used to deliver RNA into cells. In case of electroporation, 5 μg of RNA were introduced into 10^7 HC11 cells in a total volume 400 μl of serum-reduced RPMI 1640 medium in a Gene pulser cuvette (4 mm gap) with a Bio-Rad Genepulser™ set at 0.22 kV and 960 μF. Following discharge, the cells were washed twice with PBS, centrifuged for 2 min 300×g at room temperature, resuspended in prewarmed complete medium, and placed at 37° C. Nucleoporation was performed with an Amaxa Nucleofector II (Amaxa Biosystems) in accordance with manufacture's recommendations. One microgram of RNA was introduced into 10^6 HC11 cells with Nucleofector Solution V and the set of recommended regimens (program T-024).
For cytoplasmic RNA extraction, 2×10^5 cells were lysed in 175 μl of lysis buffer (50 mM Tris-HCl, pH 8.0, 140 mM NaCl, 1.5 mM MgCl2, 0.5% (v/v) Igepal (Sigma), and 1 mM dithiothreitol). […] Luciferase activity of cell extracts was measured according to the manufacturer's protocol (Promega).
We also determined the overall accumulation of luciferase, as measured by its enzymatic activity, as a function of time for mRNAs capped with m2^7,2′-OGp3G, m2^7,2′-OGppspG (D1), and m2^7,2′-OGppspG (D2). […] Luciferase activity measured in the supernatant was normalized for the amount of Luc-A60 delivered into the cells. […]

m2^7,2′-OGppspG (D2) [Compound 5b]
overall accumulation of luciferase: The most luciferase accumulated
